# According to patent publication US20210253575A1, “PYRROLIDINE AMINE COMPOUNDS FOR THE TREATMENT OF AUTOIMMUNE DISEASE” (Hoffmann-La Roche Inc., priority 2018, published 2021):
# Molecular target: T1, human TLR9 (Homo sapiens, UniProt Q9NR96)
# T1 sequence (Q9NR96 26-1032): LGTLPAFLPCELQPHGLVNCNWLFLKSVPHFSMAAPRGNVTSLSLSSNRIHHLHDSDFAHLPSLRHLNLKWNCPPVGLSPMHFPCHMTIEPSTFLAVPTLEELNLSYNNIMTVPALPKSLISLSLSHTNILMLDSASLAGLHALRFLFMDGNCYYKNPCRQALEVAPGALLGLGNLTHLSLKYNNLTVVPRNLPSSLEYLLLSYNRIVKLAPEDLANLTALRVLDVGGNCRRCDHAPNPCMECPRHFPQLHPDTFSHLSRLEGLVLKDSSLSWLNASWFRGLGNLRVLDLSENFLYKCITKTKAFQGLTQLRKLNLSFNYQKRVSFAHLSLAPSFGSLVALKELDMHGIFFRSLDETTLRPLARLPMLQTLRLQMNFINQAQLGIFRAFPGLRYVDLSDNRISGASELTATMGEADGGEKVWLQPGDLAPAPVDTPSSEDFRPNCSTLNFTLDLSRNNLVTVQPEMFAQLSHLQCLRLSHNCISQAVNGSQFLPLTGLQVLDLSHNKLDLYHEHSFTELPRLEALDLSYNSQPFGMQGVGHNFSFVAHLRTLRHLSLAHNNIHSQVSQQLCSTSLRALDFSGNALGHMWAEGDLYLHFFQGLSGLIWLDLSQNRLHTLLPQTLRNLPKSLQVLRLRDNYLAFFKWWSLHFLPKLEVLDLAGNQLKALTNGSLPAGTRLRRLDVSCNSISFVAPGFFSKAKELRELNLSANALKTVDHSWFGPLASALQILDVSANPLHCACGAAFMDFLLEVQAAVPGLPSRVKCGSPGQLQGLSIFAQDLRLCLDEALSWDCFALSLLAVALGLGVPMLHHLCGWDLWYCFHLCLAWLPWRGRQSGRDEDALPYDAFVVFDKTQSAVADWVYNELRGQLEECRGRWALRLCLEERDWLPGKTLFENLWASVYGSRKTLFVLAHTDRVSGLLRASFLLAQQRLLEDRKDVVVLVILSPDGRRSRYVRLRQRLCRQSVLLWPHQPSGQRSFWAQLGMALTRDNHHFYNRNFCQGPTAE
# Assay: HEK293-Blue-hTLR-9 cells assay (SEAP reporter, ODN2006 stimulation)
# Type: cell-based
# Conditions: HEK293-Blue-hTLR9 cells, ODN2006 ligand, 20 hrs incubation
# Method in brief: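 HEK293-Blue-hTLR9 cells with NF-κB/AP-1-driven SEAP reporter, stimulated with ODN2006 in presence of serially diluted compounds (1% DMSO) for 20 h at 37 °C. Supernatant SEAP measured with QUANTI-Blue after 2 h at 37 °C, absorbance 620–655 nm.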
row,SMILES,IC50 [µM]
1,"CC1(CN)CCCN(C[C@H]2CN(c3ccc(C#N)c4nccnc34)C[C@@H]2C(F)(F)F)C1 (stereo partly drawn) [Example 75, 8-[(3S,4R)-3-[[3-(aminomethyl)-3-methyl-1-piperidyl]methyl]-4-(trifluoromethyl)pyrrolidin-1-yl]quinoxaline-5-carbonitrile]",0.767
2,"N#Cc1ccc(N2C[C@H](CN3CC4CNCC4C3)[C@@H](C(F)(F)F)C2)c2nccnc12 (stereo partly drawn) [Example 76, 8-[(3S,4R)-3-(2,3,3a,4,6,6a-hexahydro-1H-pyrrolo[3,4-c]pyrrol-5-ylmethyl)-4-(trifluoromethyl)pyrrolidin-1-yl]quinoxaline-5-carbonitrile]",0.485
3,"N#Cc1ccc(N2C[C@H](CN3CC4CCC3CN4)[C@@H](C(F)(F)F)C2)c2nccnc12 (stereo partly drawn) [Example 77, 8-[(3S,4R)-3-(2,5-diazabicyclo[2.2.2]octan-2-ylmethyl)-4-(trifluoromethyl)pyrrolidin-1-yl]quinoxaline-5-carbonitrile]",2.34
4,"N#Cc1ccc(N2C[C@H](CN3CCCC(F)(CN)C3)[C@@H](C(F)(F)F)C2)c2nccnc12 (stereo partly drawn) [Example 78, 8-[(3S,4R)-3-[[3-(aminomethyl)-3-fluoro-1-piperidyl]methyl]-4-(trifluoromethyl)pyrrolidin-1-yl]quinoxaline-5-carbonitrile]",1.92
5,"N#Cc1ccc(N2C[C@H](CN3CCC(CCN)CC3)[C@@H](C(F)(F)F)C2)c2nccnc12 [Example 79, 8-[(3S,4R)-3-[[4-(2-aminoethyl)-1-piperidyl]methyl]-4-(trifluoromethyl)pyrrolidin-1-yl]quinoxaline-5-carbonitrile]",0.248
6,"CN(C)C1CCN(C[C@H]2CN(c3ccc(C#N)c4nccnc34)C[C@@H]2C(F)(F)F)CC1 [Example 80, 8-[(3S,4R)-3-[[4-(dimethylamino)-1-piperidyl]methyl]-4-(trifluoromethyl)pyrrolidin-1-yl]quinoxaline-5-carbonitrile]",0.706
7,"CNCC1CCN(C[C@H]2CN(c3ccc(C#N)c4nccnc34)C[C@@H]2C(F)(F)F)CC1 [Example 81, 8-[(3S,4R)-3-[[4-(methylaminomethyl)-1-piperidyl]methyl]-4-(trifluoromethyl)pyrrolidin-1-yl]quinoxaline-5-carbonitrile]",0.218
8,"CN(C)C[C@@H]1CCN(C[C@H]2CN(c3ccc(C#N)c4nccnc34)C[C@@H]2C(F)(F)F)C1 [Example 82, 8-[(3S,4R)-3-[[(3S)-3-[(dimethylamino)methyl]pyrrolidin-1-yl]methyl]-4-(trifluoromethyl)pyrrolidin-1-yl]quinoxaline-5-carbonitrile]",0.304
